Data from the NIST ThermoML archive (doi:10.1016/j.tca.2010.04.013).
Numbers after ± are expanded uncertainties.

Experiments:
[1] = relative permittivity at various frequencies (dimensionless); xn = mol fraction of the nth substance listed; settings: 303.15 K, 101.3 kPa, Liquid, Frequency=1 MHz, capacitance measurements at 1 MHz
[2] = relative permittivity at various frequencies (dimensionless); settings: 303.15 K; 101.3 kPa; Liquid; Frequency=1 MHz; capacitance measurements at 1 MHz

NC=O [formamide] + CCO
[1]
Settings	relative permittivity
x2 = 0	106.14 ± 0.64
x2 = 0.046	100.82 ± 0.65
x2 = 0.095	95.19 ± 0.62
x2 = 0.146	89.27 ± 0.59
x2 = 0.199	82.58 ± 0.55
x2 = 0.254	76.43 ± 0.51
x2 = 0.312	70.03 ± 0.47
x2 = 0.374	64.23 ± 0.43
x2 = 0.438	57.92 ± 0.39
x2 = 0.506	51.93 ± 0.35
x2 = 0.577	46.28 ± 0.31
x2 = 0.652	41.17 ± 0.28
x2 = 0.732	36.15 ± 0.25
x2 = 0.816	31.37 ± 0.21
x2 = 0.905	27.6 ± 0.18

CN(C)C=O [dimethylformamide] + CCO
[1]
Settings	relative permittivity
x2 = 0	36.55 ± 0.22
x2 = 0.087	35.57 ± 0.21
x2 = 0.169	34.72 ± 0.21
x2 = 0.249	33.96 ± 0.21
x2 = 0.325	32.98 ± 0.2
x2 = 0.399	32.16 ± 0.19
x2 = 0.469	31.39 ± 0.19
x2 = 0.537	30.57 ± 0.19
x2 = 0.603	29.63 ± 0.18
x2 = 0.666	28.78 ± 0.18
x2 = 0.726	27.8 ± 0.17
x2 = 0.785	27.05 ± 0.16
x2 = 0.841	26.22 ± 0.16
x2 = 0.896	25.39 ± 0.16
x2 = 0.949	24.65 ± 0.15

CNC=O [N-methylformamide]
Settings	relative permittivity
[2]	169.76 ± 1

NC=O [formamide] + OCCO
[1]
Settings	relative permittivity
x2 = 0	106.14 ± 0.64
x2 = 0.048	103.75 ± 0.63
x2 = 0.099	100.44 ± 0.62
x2 = 0.151	96.49 ± 0.6
x2 = 0.206	92.28 ± 0.57
x2 = 0.263	88.7 ± 0.55
x2 = 0.322	84.61 ± 0.53
x2 = 0.384	80.3 ± 0.5
x2 = 0.449	75.79 ± 0.48
x2 = 0.517	70.99 ± 0.45
x2 = 0.588	66.04 ± 0.42
x2 = 0.662	61.55 ± 0.39
x2 = 0.74	56.35 ± 0.36
x2 = 0.823	51.05 ± 0.33
x2 = 0.909	46.12 ± 0.3

CNC=O [N-methylformamide] + OCCO
[1]
Settings	relative permittivity
x2 = 0	169.76 ± 1
x2 = 0.105	139.93 ± 0.97
x2 = 0.209	118.26 ± 0.8
x2 = 0.312	102.12 ± 0.68
x2 = 0.413	87.49 ± 0.58
x2 = 0.514	76.46 ± 0.5
x2 = 0.613	67.14 ± 0.44
x2 = 0.711	59.59 ± 0.39
x2 = 0.809	52.6 ± 0.34
x2 = 0.905	46.26 ± 0.31

CN(C)C=O [dimethylformamide]
Settings	relative permittivity
[2]	36.55 ± 0.22

CN(C)C=O [dimethylformamide] + OCCO
Settings	relative permittivity
[1], x2 = 0	36.55 ± 0.22

NC=O [formamide]
Settings	relative permittivity
[2]	106.14 ± 0.64

CNC=O [N-methylformamide] + CCO
[1]
Settings	relative permittivity
x2 = 0	169.76 ± 1
x2 = 0.101	144.63 ± 0.98
x2 = 0.202	123.72 ± 0.84
x2 = 0.302	104.17 ± 0.73
x2 = 0.402	85.99 ± 0.61
x2 = 0.502	71.06 ± 0.51
x2 = 0.602	57.8 ± 0.42
x2 = 0.702	46.91 ± 0.35
x2 = 0.802	37.6 ± 0.29
x2 = 0.901	29.54 ± 0.23
